Measurements from patent US20230135524A1, “ARYL HYDANTOIN HETEROCYCLES AND METHODS OF USE” (The United States of America,as represented by the …, priority 2020, published 2023).

Assays:
LNCAP AR = test: IncuCyte % confluence cell growth inhibition, LNCAP AR; assay type: cell-based; conditions: read-out: IC50 values (μM), LNCAP AR
Protocol: (§1) Images were then analyzed to discern the % confluence of cells in each well. IC50 values were calculated from dose response curves of the % cell growth inhibition relative to DMSO control at the same time point per each cell line.

AR = biological target: T1, AR (Homo sapiens, UniProt P10275); test: AR transcriptional output, ARE-luciferase assay in HEK 293T cells; assay type: cell-based; conditions: for antagonist or inverse agonist activity on AR transcriptional activity (in words): 10 μM, HEK 293T, FIG. 6A; for activity at 10 µM: HEK-293T, read-out: AR antagonist activity (% RLU)
T1 construct: host or cells: HEK 293T
T1 sequence (P10275 1-920): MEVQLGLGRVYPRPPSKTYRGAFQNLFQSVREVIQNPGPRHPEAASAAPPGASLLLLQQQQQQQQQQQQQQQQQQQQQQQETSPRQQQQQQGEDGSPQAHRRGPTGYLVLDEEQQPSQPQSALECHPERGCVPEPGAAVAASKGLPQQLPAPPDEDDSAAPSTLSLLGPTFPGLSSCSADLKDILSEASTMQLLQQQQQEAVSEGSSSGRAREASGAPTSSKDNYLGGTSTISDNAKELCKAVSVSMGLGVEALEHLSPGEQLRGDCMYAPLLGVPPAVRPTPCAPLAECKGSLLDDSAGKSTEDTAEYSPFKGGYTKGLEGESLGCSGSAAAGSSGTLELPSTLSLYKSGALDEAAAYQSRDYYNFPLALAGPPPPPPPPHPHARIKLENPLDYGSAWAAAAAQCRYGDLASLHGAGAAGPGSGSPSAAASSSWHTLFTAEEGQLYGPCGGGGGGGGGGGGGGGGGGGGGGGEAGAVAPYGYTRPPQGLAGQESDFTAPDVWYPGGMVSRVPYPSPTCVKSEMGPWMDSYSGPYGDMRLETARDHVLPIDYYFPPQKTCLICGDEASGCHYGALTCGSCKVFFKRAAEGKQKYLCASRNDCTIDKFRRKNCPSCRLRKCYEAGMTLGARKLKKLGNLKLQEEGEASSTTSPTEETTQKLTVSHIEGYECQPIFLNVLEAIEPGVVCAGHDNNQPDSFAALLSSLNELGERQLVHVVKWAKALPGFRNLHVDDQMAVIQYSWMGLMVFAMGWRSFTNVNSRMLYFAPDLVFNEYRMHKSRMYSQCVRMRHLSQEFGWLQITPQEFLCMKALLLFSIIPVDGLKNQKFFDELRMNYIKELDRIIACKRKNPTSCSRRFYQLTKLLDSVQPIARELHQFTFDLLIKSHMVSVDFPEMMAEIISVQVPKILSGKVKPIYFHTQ
Protocol: 100% is set to the activity with 200 μM testosterone, and 0% is set to the basal level (no ligand).
Cells were maintained in steroid free media, and stimulated with 200 μM testosterone, followed immediately by administration of exemplary compounds (Table 1, below). RLU is relative luciferase units, relative to DMSO control with 200 μM testosterone alone. Data represent an average of 3 independent experiments performed in triplicate wells per compounds at 10 μM.
Cells were maintained in steroid-free media, and stimulated with 200 μM testosterone, followed immediately by administration of a test compound. […] Compounds were dosed at 10 μM in FIGS. 6A and 6B.
Cells were maintained in steroid-free media, and stimulated with 200 μM testosterone, followed immediately by administration of a test compound.

22Rv1 = test: IncuCyte % confluence cell growth inhibition, 22Rv1; assay type: cell-based; conditions: Homo sapiens, 22Rv1, read-out: IC50 values (μM), 22Rv1
Protocol: as §1

LAPC4 = test: IncuCyte % confluence cell growth inhibition, LAPC4; assay type: cell-based; conditions: Homo sapiens, LAPC4, read-out: IC50 values (μM), LAPC4
Protocol: as §1

DU145 = test: IncuCyte % confluence cell growth inhibition, DU145; assay type: cell-based; conditions: Homo sapiens, DU-145, read-out: IC50 values (μM), DU145
Protocol: as §1

PC3 = test: IncuCyte % confluence cell growth inhibition, PC3; assay type: cell-based; conditions: Homo sapiens, PC-3, read-out: IC50 values (μM), PC3
Protocol: as §1

LNCaP ARF876L = test: IncuCyte % confluence cell growth inhibition, LNCaP ARF876L; assay type: cell-based; conditions: Homo sapiens, AR-positive, AR mutation F876L, % cell growth inhibition relative to DMSO
Protocol: as §1

LNCaP ARin vivo = test: IncuCyte % confluence cell growth inhibition, LNCaP ARin vivo; assay type: cell-based; conditions: Homo sapiens, read-out: IC50 values (μM), LNCaP ARin vivo
Protocol: as §1

LNCaP = test: IncuCyte % confluence cell growth inhibition, LNCaP; assay type: cell-based; conditions: Homo sapiens, read-out: IC50 values (μM), LNCaP
Protocol: as §1

LAMP cells [1] = test: RNA-seq / gene set enrichment and master TF expression in LAMP cells; assay type: cell-based
Protocol: FIG. 16A-B are a Gene Set Enrichment Analysis for AR gene pathways (FIG. 16A) and MYC gene pathways (FIG. 16B) in LAMP cells (LNCaP cells engineered with CRISPR to have amplification of the AR enhancer) treated with either 15n or dimethylsulfoxide (DMSO) for 48 hours, followed by RNA-seq.
FIG. 16A-B are Gene Set Enrichment Analyses for AR gene pathways (FIG. 16A) and MYC gene pathways ([…]) in LAMP cells (LNCaP cells engineered with CRISPR (clustered regularly interspaced short palindromic repeats) to have amplification of the AR enhancer) treated with either 15n or DMSO for 48 hours, followed by RNA-seq.
(§2) This AR dominated cluster 1 is often driven by amplification of the distal AR enhancer (Takeda et al., Cell, 2018, 174(2), 422-432).

[2] = tested on: LAPC4 prostate cancer cells; test: LAPC4 mouse xenograft tumor volume; assay type: in vivo, Mice; conditions: oral gavage, LAPC4 mouse xenografts, day 17, FIG. 22
Protocol: FIG. 22 is a graph of tumor volume on day 17 as a percent change from the baseline.
Treatment was given once for 5 days followed by 2 days of rest. Tumor size was monitored by caliper twice weekly. Change from baseline tumor volume was calculated and reported as a waterfall plot. The in vivo activity is shown in FIG. 14, as measured by the percent change from the baseline.

LAMP cells [3] = test: Growth reduction kinetics in LAMP cells; assay type: cell-based; conditions: 15 μM and 30 μM, FIG. 20
Text: as §2

LuCaP 167 = LuCaP 167 prostate cancer PDX tumor growth; assay type: in vivo, NSG male mice; conditions: 10 mg/kg oral gavage, 5 days on 2 days off, LuCaP 167 PDX, FIG. 23
Protocol: LuCaP 167 is a well-characterized androgen sensitive prostate cancer (PCa) PDX model established at the University of Washington and has been validated using short tandem repeat (STR) analysis. All preclinical in vivo experiments were performed in accordance with NCI Animal Care and Use Committee approved protocol. Six-week-old NSGmale mice were housed in a sterile, pathogen-free facility and maintained in a temperature-controlled room under a 12-hour light/dark schedule with water and food ad libitum. All mice were operated under sedation with oxygen and isoflurane. Ibuprofen and/or buprenorphine was administered post-surgery. LuCaP 167 was implanted subcutaneously under the left flank of intact mice. When tumors reached an average volume of ˜500 mm^3, mice were randomized and placed in either control group or treatment groups (n=10/group). […] Tumor burden was assessed twice per week by caliper measurement of two diameters of the tumor (L×W=mm^2) and reported as tumor volume ((L×W^2)/2=mm^3). Body weights were assessed using a weighing scale and recorded in grams. At the end-of-treatment (EOT) timepoint, tumor tissues were excised, weighed, and snap frozen for further analysis.

[4] = Pharmacokinetics in non-tumor bearing BALB/C mice, IV and PO; assay type: in vivo; conditions: for AUClast—D / Cmax—D: dose-normalised; for AUC(0-t) / Cmax / Tmax / half-life: mouse, plasma
Protocol: FIG. 14A-B are graphs of time (hours) versus plasma concentration (ng/mL) for intravenous (IV) (FIG. 14A) and oral (PO) (FIG. 14B) administration of 15a and 15n over 12 hours. Error bars represent the standard deviation in ng/mL from three independent mice per time point.
Clearance, Cmax, half life, dose/AUC, and bioavailability were calculated by statistical analysis using PHOENIX™ WINNONLIN™ v7.0 (Certara, Princeton, N.J.). The results are shown in FIGS. 14A and 14B and Table 4.

Row | SMILES | IC50 (LNCAP AR) [µM] | antagonist or inverse agonist activity on AR transcriptional activity (in words) (AR) | activity at 10 µM (AR) [%] | IC50 (22Rv1) [µM] | IC50 (LAPC4) [µM] | IC50 (DU145) [µM] | IC50 (PC3) [µM] | IC50 (LNCaP ARF876L) [µM] | IC50 (LNCaP ARin vivo) [µM] | IC50 (LNCaP) [µM] | further results
1 | CC1(C)C(=O)N(c2ccc(C#N)c(C(F)(F)F)c2)C(=O)N1Cc1ccc(-c2c[nH]nn2)cc1 [Compound 14a, 4-(3-(4-(1H-1,2,3-triazol-4-yl)benzyl)-4,4-dimethyl-2,5-dioxoimidazolidin-1-yl)-2-(trifluoromethyl)benzonitrile] | 32.5 | reduced the transcriptional activity of the AR well below the expression in the absence of any steroids or ligands | -64 | 46.5 | 70 | 84.1 | 68.5 | 35.9 | 65.4 | 44.8 | 
2 | CC1(C)C(=O)N(c2cnc(C#N)c(C(F)(F)F)c2)C(=S)N1Cc1ccc(-c2c[nH]nn2)cc1 [Compound 15n] |  |  |  |  |  |  |  |  |  |  | ATF4 expression (LAMP cells [1]; 48 hours, FIG. 19): greatly reduced; AR target gene set (Gene Set Enrichment Analysis) (LAMP cells [1]; 48 hours, versus DMSO, RNA-seq): down regulated; MYC target gene set (Gene Set Enrichment Analysis) (LAMP cells [1]; 48 hours, versus DMSO, RNA-seq): down regulated; ATF4 driven amino-acid tRNA synthesis pathway (LAMP cells [1]; compared with enzalutamide): able to also downregulate; tumor burden (percent change from baseline tumor volume) [2]: retained its ability to reduce tumor burden; cell killing compared with enzalutamide (LAMP cells [3]): superior cell killing at lower doses than enzalutamide; anti-tumor effect (average tumor growth rate) (LuCaP 167): superior anti-tumor effect over enzalutamide; AUClast—D ([4]; IV, 1 mg/kg): 6255.85 kg·ng·h/mL/mg; Cmax—D ([4]; IV, 1 mg/kg): 936.94 kg·ng/mL/mg; AUClast—D ([4]; PO, 20 mg/kg): 4866.48 kg·ng·h/mL/mg; Cmax—D ([4]; PO, 20 mg/kg): 549.09 kg·ng/mL/mg; AUC(0-t) ([4]; IV, 1 mg/kg): 6260 ng·h/mL; Cmax ([4]; IV, 1 mg/kg): 937 ng/mL; Tmax ([4]; IV, 1 mg/kg): 0.5 h; half-life ([4]; IV, 1 mg/kg): 9.13 h; AUC(0-t) ([4]; PO, 20 mg/kg): 97300 ng·h/mL; Cmax ([4]; PO, 20 mg/kg): 11000 ng/mL; Tmax ([4]; PO, 20 mg/kg): 1 h; half-life ([4]; PO, 20 mg/kg): 22.3 h
3 | CC1(C)C(=O)N(c2ccc(C#N)c(C(F)(F)F)c2)C(=S)N1c1ccc(-c2c[nH]nn2)cc1 [Compound 16a, 4-(3-(4-(1H-1,2,3-triazol-4-yl)phenyl)-4,4-dimethyl-5-oxo-2-thioxoimidazolidin-1-yl)-2-(trifluoromethyl)benzonitrile] | 21.2 | reduced the transcriptional activity of the AR well below the expression in the absence of any steroids or ligands | -22 | 20.7 | 17.3 | 39.9 | 49.2 | 30.2 | 33.6 | 17.1 | 
